In patent US20070203233A1, “NOVEL 2-(alpha-N-PENTANONYL)BENZOATES, THEIR PREPARATION AND USE” (priority 2004, published 2007):
Marks after values point to notes of the source that are not given here.

Experiments:
[1] = system: model rats of middle cerebral artery thrombosis (MCAT); assay: Effects on neural symptoms of MCAT rats; assay type: in vivo, SD rats; set-up: key to Scores 6 hours / Scores 24 hours: 0/1 per test, summed (max 4); higher = more severe behavioral disorder; details: for Scores 6 hours: behavioral score 6 h after operation (full mark 4); for Scores 24 hours: behavioral score 24 h after operation (full mark 4); for % inhibition at hour 24: vs. model group
Procedure: (1) Grouping and administration: […] Preventive administration was conducted by gavage one time per day for 3 days prior to the model being established. The model was established on day 4, and a dosage of one day was administered by gavage immediately after the model was established. Another dosage of one day was again administered by gavage 12 hours after the model was established. Equivalent amount of the vehicle was administered to the control group. […] Description of technique and early neuropathological consequences following middle cerebral artery occlusion. J Cereb Blood Flow Metab, 1981, 1: 53), and fixed in lateral decubitus position. A bowtype incision of 1.5 cm long was made at the midpoint between canthus and exterior auditory canal. Temporalis was broken and incised to expose temporal bone. […] The filter paper was removed after 30 min when the vascular became black. The localized tissue was washed with physiological brine, and sutured layer by layer. Then rats were placed back into the cages. By following the modified method of Bederson et al. […] (2) The animals were placed onto a smooth ground, and the resistance of contralateral shoulder to push was examined. “0” was recorded if the resistance of both shoulders were equal and strong; and “1” was recorded if the resistance of contralateral shoulder to push was decreased. […] (4) The tail of the rat was lifted 30 cm high away from the ground, and “1” was recorded if the animals ceaselessly circled contralaterally. “4” was full mark in accordance with the above-mentioned standard. The higher the score was, more severe the behavioral disorder of the animal was. 4. Results: The behavioral scores in each group were compared by student t test.

[2] = system: model rats of middle cerebral artery thrombosis (MCAT); assay: Effects on cerebral infarct area of MCAT rats; assay type: in vivo, SD rats; details: for Cerebral infarct tissue weight/total brain weight (%): 24 h after operation, TTC staining; for Inhibition (%): cerebral infarct vs. model group
[3] = viscous liquid; cited from earlier work
The Stability to Light = assay type: physicochemical; details: 10 days, HPLC
Thermal Stability = assay type: physicochemical; details: 60° C., 10 days, HPLC
[4] = system: thrombus of artery-vein bypass in rats; assay: Effects on thrombosis of artery-vein bypass in rats; assay type: in vivo, SD rats; details: for Dry-weight of thrombus / Wet-weight of thrombus: once per day for 3 days; for Inhibition (%) of dry-weight of thrombus / Inhibition (%) of wet-weight of thrombus: vs. thrombus model group
Procedure: Testing methods are described in Chen-Qi, “Methodology for Pharmacological Research of Chinese Medicine”,People's Medical Publishing House, Sep. 1993, 1st ed., page 510. […] Equivalent amount of the vehicle was administered to the thrombus model group. The operation was conducted immediately after the final administration. […] The operation was conducted to separate the right common carotid artery and the left external jugular vein. A pre-weighed suture # 0 of 8 cm long was placed into the middle part of a polyethylene tube of 10 cm long. Then the tube was filled with normal saline, and connected at both ends to the cannula of 3 cm long filled with normal saline. One end of the tube was inserted into the left external jugular vein, and another end was inserted into the right common carotid artery. The blood flowed from the right common carotid artery to the polyethylene tube, and then flow back to the left external jugular vein, so as to construct a bypass circulation. […] The wet-weight of the thrombus was obtained by subtracting the weight of the suture and the paper from this total wet weight. […] The thrombus was taken out and weighed to obtain a total dry weight. The dry weight of the thrombus was obtained by subtracting the weight of the suture and the paper form this total dry weight. The results in each group were compared by student's t test. […] Testing Results

in vivo = details: both, ICR, mouse, po

| SMILES | Scores 6 hours ([1]; 50 mg/kg by gavage) | Scores 24 hours ([1]; 50 mg/kg by gavage) | Scores 6 hours ([1]; 100 mg/kg by gavage) | Scores 24 hours ([1]; 100 mg/kg by gavage) | Scores 6 hours ([1]; 200 mg/kg by gavage) | Scores 24 hours ([1]; 200 mg/kg by gavage) | Cerebral infarct tissue weight/total brain weight (%) ([2]; 50 mg/kg by gavage) | Inhibition (%) ([2]; 50 mg/kg by gavage) | Cerebral infarct tissue weight/total brain weight (%) ([2]; 100 mg/kg by gavage) | Inhibition (%) ([2]; 100 mg/kg by gavage) | Cerebral infarct tissue weight/total brain weight (%) ([2]; 200 mg/kg by gavage) | Inhibition (%) ([2]; 200 mg/kg by gavage) | also measured |
| --- | --- | --- | --- | --- | --- | --- | --- | --- | --- | --- | --- | --- | --- |
| CCCCC1OC(=O)c2ccccc21 (racemic) [DL-3-n-butylphthalide] | 3.36 ± 0.81 | 3.09 ± 0.54 | 3.36 ± 0.50 | 3.09 ± 0.70 | 3.36 ± 0.67 | 3.00 ± 0.89 | 5.66 ± 2.81% | 23.62% | 5.81 ± 1.49 % | 26.83% | 5.52 ± 1.78 % | 27.46% | % inhibition at hour 24 ([1]; 50 mg/kg by gavage): 15.11%; % inhibition at hour 24 ([1]; 100 mg/kg by gavage): 17.16%; % inhibition at hour 24 ([1]; 200 mg/kg by gavage): 19.57%; solubility in water (in words) [3]: insoluble in water |
| CCCCC(=O)c1ccccc1C(=O)O [Calcium 2-(α-n-pentanonyl)benzoate, calcium 2-(α-n-pentanonyl)benzoate] | 3.18 ± 0.60 | 2.73 ± 0.65**^,s | 3.40 ± 0.52 | 2.90 ± 0.57 | 3.27 ± 0.79 | 2.45 ± 0.82 | 5.01 ± 1.79 % | 32.39% | 5.23 ± 2.04 % | 34.13% | 4.65 ± 2.13 % | 38.90% | decomposed product detected, stability to light (in words) (The Stability to Light): no decomposed product; decomposed product detected, thermal stability (in words) (Thermal Stability): no decomposed product; cerebral infarct as compared with the model group (in words) ([2]; 50 mg/kg, P<0.05): significantly reduced; Dry-weight of thrombus ([4]; 50 mg/kg by gavage): 40.2 ± 18.0 mg; Wet-weight of thrombus ([4]; 50 mg/kg by gavage): 199.8 ± 30.4 mg; Inhibition (%) of dry-weight of thrombus ([4]; 50 mg/kg by gavage): 21.64%; Inhibition (%) of wet-weight of thrombus ([4]; 50 mg/kg by gavage): 22.92%; Dry-weight of thrombus ([4]; 100 mg/kg by gavage): 34.2 ± 13.1 mg; Wet-weight of thrombus ([4]; 100 mg/kg by gavage): 189.8 ± 52.3 mg; Inhibition (%) of dry-weight of thrombus ([4]; 100 mg/kg by gavage): 33.33%; Inhibition (%) of wet-weight of thrombus ([4]; 100 mg/kg by gavage): 26.77%; Dry-weight of thrombus ([4]; 200 mg/kg by gavage): 30.4 ± 13.9 mg; Wet-weight of thrombus ([4]; 200 mg/kg by gavage): 163.2 ± 64.4 mg; Inhibition (%) of dry-weight of thrombus ([4]; 200 mg/kg by gavage): 40.74%; Inhibition (%) of wet-weight of thrombus ([4]; 200 mg/kg by gavage): 37.04%; LD50 at 7 days (in vivo): 2680 mg/kg |
